Experimental data published in patent US20220177459A1, “AROMATIC AMINE COMPOUND AND USE THEREOF IN PREPARATION OF AR AND BRD4 DUAL INHIBITORS AND REGULATORS” (HINOVA PHARMACEUTICALS INC., priority 2019, published 2022).

Tests used:
VCaP cells = assay: Inhibition of proliferation of other prostate cancer cells: VCaP; type: cell-based; conditions: Homo sapiens, same method as LNCaP/AR
Procedure: (§1) 1) LNCaP/AR cells were subcultured in cell culture medium, and the cells in good growth condition were seeded in a 96-well plate, with 80 μL per well (i.e. 1000 cells per well), and cultured overnight in a 37° C., 5% CO2 cell incubator.
(§2) Immediately before use, the stock solution was diluted 3 times with DMSO, and then diluted as a 3-fold gradient to obtain 9 concentration gradients. Then, the compound of each concentration was diluted 200 times with the culture media (to ensure that the DMSO concentration in the culture system was 0.1%), and two multiple holes were set for each concentration. 20 μL of the diluted compound was added to the cell culture well (with a final concentration of 10 μM, 3.3 μM, 1.1 μM . . . ), and then shook gently to mix. In addition, three negative control wells with only cells and three blank control wells with only culture medium were included (6 wells being each added with DMSO diluted 200 times with 20 μL culture medium).
(§3) 1) After culturing for 6 days, 10 μL of CCK-8 was added to each well and continued culturing for 1 hour in a 37° C., 5% CO2 cell incubator.
(§4) 2) The absorbance (OD value) was measured at 450 nm using a multifunctional microplate reader.
(§5) 3) The data were analyzed by the Dose-response-inhibition equation in the software GraphPad Prism5, and the IC50 value was obtained.
(§6) 2. Biological determination of the inhibitory effect on the proliferation of other prostate cancer cells
(§7) The inhibitory activity of the compound according to the present invention on other drug-resistant prostate cancer cells was measured by the same method as described above, in which VCaP and 22RV1 cells were commercially available.

BRD4 (D1+D2) protein = target: T1, BRD4 (D1+D2) protein (Homo sapiens, UniProt O60885); assay: HTRF binding to BRD4 (D1+D2) protein; conditions: BRD4(1,2), 2 h at room temperature, read-out: IC50 (μM), inhibitory activity on BRD4
T1 construct: purchased BPS 31044
Text: Homogeneous time-resolved fluorescence technique (HTRF) was used to detect the binding effect of compound to BRD4 (D1+D2) protein.
Experimental materials: • BRD4(1,2) (BPS, Cat. No. 31044), • I-CBP 112 (MCE, Cat. No. HY-19541), • (+)-JQ1 (BPS, Cat. No. 27402).
Using homogeneous time-resolved fluorescence method, the detection steps are as follows:
1. According to the layout of the detection plate, the test compound was gradiently diluted on the Echo plate, and the final dilution concentration of DMSO was 0.1%.
2. The compound or DMSO was transferred to the 384-well detection plate with the Echo automatic sampler.
3. Two-fold concentration of protein and peptide mixture was added to the detection plate.
4. Two-fold concentration of the detection mixture was added to the detection plate, and shook for 30 s.
5. Incubating for 2 h at room temperature.
6. The fluorescence signal was read on the Envision multifunctional microplate reader (excitation wavelength at 340 nm; emission wavelength at 615 nm and 665 nm).
1. The experimental data were entered into an Excel file, and equation (1) was used to calculate the inhibition rate:
Inh %=(Max−Signal)/(Max−Min)*100 Equation (1)
2. The obtained data were input into GraphPad software, and equation (2) was used to calculate the IC50 value.
Y=Bottom+(Top−Bottom)/(1+10^((LogIC50−X)*Hill Slope)) Equation (2)
wherein, Y axis is the inhibition rate, while X axis is the compound concentration.

22RV1 cells = assay: Inhibition of proliferation of other prostate cancer cells: 22RV1; type: cell-based; conditions: Homo sapiens, same method as LNCaP/AR
Procedure: as §1, §2, §3, §4, §5, §6, §7

LNCaP/AR cells = assay: Inhibition of proliferation of prostate cancer cells LNCaP/AR (CCK-8); type: cell-based; conditions: 144 h, 6 days culture, CCK-8, OD 450 nm, read-out: IC50 (μM), inhibitory activity on prostate cancer cell LNCap/AR
Procedure: 1. Biological determination of the inhibitory effect on the proliferation of prostate cancer cells LNCaP/AR
Cell culture medium: RIPM1640 media, 10% FBS, 1% Pen Strep;
as §1
2) The drug was prepared with dimethylsulfoxide (DMSO) as a 10 mM stock solution.
as §2, §3, §4, §5

androgen receptor (AR) = target: T2, androgen receptor (AR) (Homo sapiens, UniProt P10275); assay: Inhibitory activity on the function of androgen receptor (AR), luciferase reporter in transfected cells; type: cell-based; conditions: transfected with AR and pGL4.36, testosterone 2 nM, Steady-Glo
T2 construct: host or cells: HEK293
T2 sequence (P10275 1-920): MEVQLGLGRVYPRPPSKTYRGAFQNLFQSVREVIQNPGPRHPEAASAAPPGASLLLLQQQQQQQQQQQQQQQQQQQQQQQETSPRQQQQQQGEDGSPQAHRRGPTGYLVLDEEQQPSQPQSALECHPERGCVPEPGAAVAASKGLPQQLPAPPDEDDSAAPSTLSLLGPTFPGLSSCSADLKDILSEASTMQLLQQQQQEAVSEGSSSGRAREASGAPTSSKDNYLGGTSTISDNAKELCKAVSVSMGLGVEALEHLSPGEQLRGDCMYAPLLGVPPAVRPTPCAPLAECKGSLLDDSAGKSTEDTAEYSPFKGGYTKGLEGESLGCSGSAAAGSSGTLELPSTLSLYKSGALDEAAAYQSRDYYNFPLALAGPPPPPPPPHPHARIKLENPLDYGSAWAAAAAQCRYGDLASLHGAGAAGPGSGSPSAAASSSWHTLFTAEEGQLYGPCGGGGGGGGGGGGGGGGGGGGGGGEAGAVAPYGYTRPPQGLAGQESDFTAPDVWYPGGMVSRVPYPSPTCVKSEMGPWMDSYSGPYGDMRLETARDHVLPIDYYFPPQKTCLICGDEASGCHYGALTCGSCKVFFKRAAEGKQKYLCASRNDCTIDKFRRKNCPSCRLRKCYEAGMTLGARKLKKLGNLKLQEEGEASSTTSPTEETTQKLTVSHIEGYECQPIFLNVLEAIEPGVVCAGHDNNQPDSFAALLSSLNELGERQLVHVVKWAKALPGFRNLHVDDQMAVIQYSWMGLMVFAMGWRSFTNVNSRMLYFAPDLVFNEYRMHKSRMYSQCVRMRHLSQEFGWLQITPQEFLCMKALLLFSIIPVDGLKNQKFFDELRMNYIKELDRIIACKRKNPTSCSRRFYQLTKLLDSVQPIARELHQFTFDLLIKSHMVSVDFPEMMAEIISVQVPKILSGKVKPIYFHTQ
Procedure: Experimental Example 2 the Inhibitory Activity of the Compound According to the Present Invention on the Function of Androgen Receptor (AR)
Androgen receptor clone (Origene, Cat. No. RC235415)
pGL4.36 vector (Promega, Cat. No. E1360)
1) The cell suspension was diluted with the culture medium for seeding cells to a concentration of 4.0×10^5 cells/ml, for plating and adding transfection reagents.
2) The diluted cell suspension was inoculated into a cell culture plate, with 100 μL per well, and the plate was placed in a cell incubator and cultured overnight.
3) The transfection reagent was prepared as 10 μL/well, and added into the cell culture plate after 15 min at room temperature, then the plate was placed in a cell incubator and cultured overnight.
4) The compound was diluted by a 3-fold gradient with TECAN sampler, to obtain 8 concentration gradients, and the final DMSO concentration was 0.25%. The diluted compound was cultured in a 37° C. incubator for 30 min.
5) 250 nL of testosterone at a final concentration of 2 nM was added to the control well with an […] sampler, placed in a cell incubator, and cultured overnight.
6) Steady-Glo was added at 100 μL/well to the cell culture plate, and then the plate was left at room temperature for 15 min, followed by reading on Envision.
The data were analyzed according to the formula % Effect=(Sample value−LC)/(HC−LC)*100, using XL-fit software (provided by Business Solutions Ltd., version number XL fit 5.0). The inhibition rate of each compound against androgen receptor (AR) was calculated, and the half-inhibitory concentration IC50 of each compound against androgen receptor (AR) was further calculated.

- IC50 (VCaP cells): 1.35 µM
- IC50 (BRD4 (D1+D2) protein): 6.3 µM
- IC50 (22RV1 cells): 9.37 µM
- IC50 (LNCaP/AR cells): 0.54 µM
- IC50 (androgen receptor (AR)): 2.1 µM
Structure (SMILES): CCN(c1ccc(-n2ccnc2)c(Br)c1)c1cc(-c2c(C)noc2C)ccc1C [Compound 31, N-(3-bromo-4-(1H-imidazol-1-yl)phenyl)-5-(3,5-dimethylisoxazol-4-yl)-N-ethyl-2-methylaniline]
